Where “and” joins values, the source holds several entries; their conditions need not be identical. Identical values can stand only once. Entries after “also recorded” stand apart in the source; their conditions may differ.
What was measured:
[1] = system: infant foreskin fibroblasts; test: Fibroblast chemotaxis in modified Boyden chambers (incl. checkerboard and deactivation studies); type: cell-based, human; conditions: for fibroblast chemotaxis / migration (in words): peptide in lower compartment of modified Boyden chamber; for Mean Fibroblasts per 20 OIF + SEM: Experiment 1, lower compartment: TGF-β1 50 pg/ml, peptide 368-374 1.4 × 10^-5 M, peptide 364-378 6.7 × 10^-7 M, fibronectin 20 μg/ml; for chemotactic response of fibroblasts to peptide with fibronectin in upper chamber (in words): unrelated chemoattractant fibronectin in the upper chamber
Method: Target cells used in in vitro chemotaxis assays were infant foreskin fibroblasts obtained by establishing monolayer cultures from explants of tissue. Cells were maintained in Eagle's minimum essential medium (MEM) supplemented with non-essential amino acids, antibiotics, 50 ug/ml ascorbic acid, and 9% fetal calf serum (FCS). Cells were passaged by trypsinization every 3-5 days.
Infant foreskin fibroblasts were harvested from monolayer culture by gentle trypsinization, washed twice in serum-free Eagles's MEM and adjusted to a final concentration of 250,000 cells/ml. The cell suspension (0.4 ml) was added to the upper compartments of blind well modified Boyden chemotaxis chambers. The peptides of the invention being assayed for chemotactic activity were solubilized in glycylglycine (0.015M) buffered NaCl (0.14M), pH 7.2, hereinafter referred to as GGBS, and diluted 50% with serum-free MEM. Test substances were added to the lower compartment of the chemotaxis chambers. Gelatin-treated polycarbonate filters (8 micron pore size) were interposed between the lowest compartment and the upper cell compartment. Loaded chambers were incubated at 37° C. in a humidified atmosphere containing 5% CO2 for 150 minutes. After incubation, the chambers were disassembled, the filters removed, stained with hematoxylin, and mounted on glass cover slips. Fibroblast chemotaxis was quantitated by counting the number of fibroblasts in 20 oil immersion fields (OIF) that migrated and adhered to the lower surface of each filter. Samples were tested in quadruplicate and results are expressed as mean number of fibroblasts per 20 OIF±standard error of the mean (SEM). Chemotaxis neutralization studies were performed by adding TGF-β1 or fibronectin to the upper cell compartment and testing for effects on fibroblast migration to the TGF-β peptides.
Zigmond-Hirsch checkerboard analysis (Zigmond & Hirsch, J. Exptl. Med. 137:387, 1972) was performed to determine whether the 7-mer peptide 368-374 (Val Tyr Tyr Val Gly Arg Lys) induced chemotaxis of fibroblasts, monocytes and neutrophils.
Deactivation studies were utilized to determine whether the peptides of the invention containing the 7-mer peptide amino acid sequence induced chemotaxis via cellular receptors and mechanisms utilized by intact TGF-β.

[2] = system: guinea pig skin; test: In vivo fibrosis assay, intradermal injection into guinea pig skin; parameters: species or system Guinea pigs (Hartley strain); conditions: for fibrogenic response / fibrosis in guinea pig skin (in words): intradermal injection of peptide in collagen carrier; for Histologic Score (degree of fibrosis), Peptide site: 400 μg peptide in 1.7 mg type I collagen carrier, 100 μl intradermal, 9 days, one value per guinea pig, scale 0 to 4
Method: The ability of the peptides to induce cellular chemotaxis and a fibrogenic response (fibroblast proliferation and collagen synthesis) in vivo may be measured by intradermal injection of the peptides into the skin of guinea pigs. Generally, the in vivo, guinea pig skin studies were carried out according to the following protocol:
8 mg/cc stocks of the peptides according to the present invention in Dulbecco's PBS were sterile filtered using a 0.45μ syringe filter. PBS plus ZYDERM™ collagen (Collagen Corp., Inc.) was used as a control. Peptide stocks were diluted 1:1 with ZYDERM™ collagen (35 mg/ml), resulting in a 4 mg/ml peptide-collagen suspension. Peptide-collagen suspensions were kept on ice at all times and drawn up in 1 cc syringes fitted with 27 or 28 gauge needles.
(§1) Guinea pigs (Hartley strain, female, weanlings) were shaved on the left and right sides of their abdomens. 100 μl of a suspension of peptide-collagen was injected intradermally in one site on each side of each guinea pig. Each site was circled with an indelible ink pen. Pigs were remarked after 3 days. At appropriate times after injection, guinea pigs were sacrificed via CO2 narcosis. Animals were shaved and a depilatory was used to remove remaining stubble. Injection sites were excised using a skin biopsy punch (6 mm). Tissue was placed in vials with 10% neutral buffered formalin. Sections were processed for staining with H+E and Masson's Trichrome.
8 mg/cc stocks of TGF-β1 peptides in Dulbecco's PBS were sterile filtered using a 0.45μ syringe filter. PBS plus ZYDERM™ (Collagen Corp., Inc.) was used as a control. Peptide stocks were diluted 1:1 with ZYDERM™ collagen (35 mg/ml) resulting in a 4 mg/ml peptide-collagen suspension. Peptide-collagen suspensions were kept on ice at all times and drawn up in 1 cc syringes fitted with 27 or 28 gauge needles.
as §1, with “of” for “of a”, “peptide-collagenwas” for “peptide-collagen was”, “straining” for “staining”
In vivo fibrosis assays were performed. Guinea pigs were injected intradermally with 400 μg of either peptide VYYVGRK (SEQ ID NO. 1) or peptide PLPIVYYVGRKPKVE (SEQ ID NO. 6) in a 100 μl volume of saline containing type I bovine collagen carrier 1.7 mg (zyderm, Celtrex Corp. Palo Alto, Calif.). As a control, at a distant site on the same guinea pig, the collagen carrier plus saline was injected intradermally as a control. Nine days later, the animals were sacrificed, and the skin sectioned through the injection sites was processed for histology using Mason-Trichrome to stain collagen fibers. The degree of fibrosis was assessed at 400×magnification to determine degree of replacement of surrounding subcutaneous fat with newly synthesized collagen. FIG. 15 is a Mason-Trichrome, 400×[…] of 9 day post intradermal injection of guinea pig skin with 100 μl, 400 μg peptide PLPIVYYVGRKPKVE ([…]) in collagen carrier (1.7 mg). There is marked (score of 4) replacement of fat cells with newly synthesized collagen in the subcutaneous fatty layer. Fibroblasts are noted scattered throughout what was once subcutaneous fatty layer. FIG. 16 is a Mason-Trichrome 400×magnification of 9 days post intradermal injection of the same guinea pig as in […] at a distant site with saline and collagen carrier as a control. Note minimal (score of 1) replacement of fat cells with newly synthesized collagen. Few fibroblasts are visible in the subcutaneous fatty layer. […]

[3] = system: T-Cell; test: T-cell proliferation; type: cell-based; parameters: key: NE = No Effect; conditions: Table II summary
[4] = system: fibroblasts; test: Hyaluronate production by fibroblasts; type: cell-based; parameters: key to FIBROBLAST EFFECTS Hyaluronate: NE = No Effect
[5] = Media added to upper compartment
[6] = TGF-β1 (50 pg/ml) added to upper compartment

Row | Substance | fibroblast chemotaxis / migration (in words) [1] | fibrogenic response / fibrosis in guinea pig skin (in words) [2] | Mean Fibroblasts per 20 OIF + SEM [1, 5] [Fibroblasts per 20 OIF] | Mean Fibroblasts per 20 OIF + SEM [1, 6] [Fibroblasts per 20 OIF] | chemotactic response of fibroblasts to peptide with fibronectin in upper chamber (in words) [1] | T-Cell Proliferation [3] | Histologic Score (degree of fibrosis), Peptide site [2] | further results
1 | 340-391: synthetic peptide corresponding to sequence 340-391 of TGF-β1; positive chemotactic control (VLALYNQHNPGASAAPCCVPQALEPLPIVYYVGRKPKVEQLSNMIVRSCKCS; printed: Val Leu Ala Leu Tyr Asn Gln His Asn Pro Gly Ala Ser Ala Ala Pro Cys Cys Val Pro Gln Ala Leu Glu Pro Leu Pro Ile Val Tyr Tyr Val Gly Arg Lys Pro Lys Val Glu Gln Leu Ser Asn Met Ile Val Arg Ser Cys Lys Cys Ser) [Peptide 340-391] | migrated in a dose dependent fashion | induced a fibrinogenic response |  |  |  |  |  | 
2 | PLPIVYYVGRKPKVE [Peptide 364-378, 15-mer peptide 364-378 of TGF-β1] | induced migration of fibroblasts, monocytes and neutrophils in a dose dependent fashion | induced a fibrinogenic response | 122 ± 8 | 37 ± 5 | No such inhibition was seen | NE | 4 (4 equals 75 to 100% of fat cells replaced with collagen) and 3 (3 equals replacement of 50 to 75% of fat cells with collagen) | fibrogenic response / fibrosis in guinea pig skin (in words) ([2]; listed as PLPIVYYVGRKPKVE): extensive collagen synthesis
3 | VYYVGRK [Peptide 368-374, 7-mer corresponding to amino acids 368-374 of TGF-β1] | does stimulate fibroblast chemotaxis and synthesis of collagen and hyaluronic acid; also recorded: induced migration of fibroblasts, monocytes and neutrophils in a dose dependent fashion; also recorded: induced primarily chemotaxis of fibroblasts | did not induce | 75 ± 2 | 23 ± 1 | No such inhibition was seen | NE | 1 (1 equals replacement of 10 to 25% of the fat cells with collagen) | Fibroblasts per 20 OIF (mean ± SEM) ([1]; checkerboard: upper compartment 0, lower compartment 1.4 × 10^-6 M): 38 ± 2 Fibroblasts per 20 OIF; Fibroblasts per 20 OIF (mean ± SEM) ([1]; checkerboard: upper compartment 0, lower compartment 7.0 × 10^-6 M): 58 ± 5 Fibroblasts per 20 OIF; Fibroblasts per 20 OIF (mean ± SEM) ([1]; checkerboard: upper compartment 0, lower compartment 7.0 × 10^-7 M): 20 ± 3 Fibroblasts per 20 OIF; Fibroblasts per 20 OIF (mean ± SEM) ([1]; checkerboard: upper compartment 1.4 × 10^-6 M, lower compartment 0): 9 ± 1 Fibroblasts per 20 OIF; Fibroblasts per 20 OIF (mean ± SEM) ([1]; checkerboard: upper compartment 1.4 × 10^-6 M, lower compartment 1.4 × 10^-6 M): 9 ± 1 Fibroblasts per 20 OIF; Fibroblasts per 20 OIF (mean ± SEM) ([1]; checkerboard: upper compartment 1.4 × 10^-6 M, lower compartment 7.0 × 10^-6 M): 24 ± 2 Fibroblasts per 20 OIF; Fibroblasts per 20 OIF (mean ± SEM) ([1]; checkerboard: upper compartment 1.4 × 10^-6 M, lower compartment 7.0 × 10^-7 M): 10 ± 1 Fibroblasts per 20 OIF; Fibroblasts per 20 OIF (mean ± SEM) ([1]; checkerboard: upper compartment 7.0 × 10^-6 M, lower compartment 0): 7 ± 1 Fibroblasts per 20 OIF; Fibroblasts per 20 OIF (mean ± SEM) ([1]; checkerboard: upper compartment 7.0 × 10^-6 M, lower compartment 1.4 × 10^-6 M): 8 ± 1 Fibroblasts per 20 OIF; Fibroblasts per 20 OIF (mean ± SEM) ([1]; checkerboard: upper compartment 7.0 × 10^-6 M, lower compartment 7.0 × 10^-6 M): 11 ± 1 Fibroblasts per 20 OIF; Fibroblasts per 20 OIF (mean ± SEM) ([1]; checkerboard: upper compartment 7.0 × 10^-6 M, lower compartment 7.0 × 10^-7 M): 7 ± 1 Fibroblasts per 20 OIF; Fibroblasts per 20 OIF (mean ± SEM) ([1]; checkerboard: upper compartment 7.0 × 10^-7 M, lower compartment 0): 8 ± 1 Fibroblasts per 20 OIF; Fibroblasts per 20 OIF (mean ± SEM) ([1]; checkerboard: upper compartment 7.0 × 10^-7 M, lower compartment 1.4 × 10^-6 M): 24 ± 2 Fibroblasts per 20 OIF; Fibroblasts per 20 OIF (mean ± SEM) ([1]; checkerboard: upper compartment 7.0 × 10^-7 M, lower compartment 7.0 × 10^-6 M): 39 ± 4 Fibroblasts per 20 OIF; Fibroblasts per 20 OIF (mean ± SEM) ([1]; checkerboard: upper compartment 7.0 × 10^-7 M, lower compartment 7.0 × 10^-7 M): 10 ± 1 Fibroblasts per 20 OIF; fibroblast chemotaxis / migration (in words) ([1]; listed as VYYVGRKK): induced fibroblast chemotaxis at all of the concentration tested; synthesis of hyaluronic acid (in words) [4]: does stimulate fibroblast chemotaxis and synthesis of collagen and hyaluronic acid
4 | YSKVLALYNQHNPGASAAPC (YSKVLALYNQHNPGASAAPC) [Peptide 337-356] | has the ability to induce fibroblast chemotaxis | induced a fibrinogenic response |  |  | No such inhibition was seen |  |  | FIBROBLAST EFFECTS Hyaluronate ([4]; Table II summary): NE

Reference: patent US5824647A, “Chemotactic wound healing peptides” (priority 1995, dated 1998)
